Test results taken from US6251605A, “Yeast cells having mutations in Cav1 and uses therefor” (priority 1999, dated 2001).

Target: T1, Ste2 receptor (Saccharomyces cerevisiae, UniProt D6VTK4)
T1 construct: The wild type strain and a cav1 mutant strain, transformed with the plasmid; endogenous in cells; host or cells: S. cerevisiae wild type and cav1 mutant strains carrying the FUS1-lacZ reporter plasmid
Assay: FUS1-lacZ β-galactosidase reporter assay, Ste2-mediated signaling
Format: cell-based, S. cerevisiae
Conditions: 30 minutes incubation
Experimental: In order to determine whether the CAV1 gene is involved in Ste2-mediated signaling, the effects of a cav1 mutation on the levels of FUS1-lacZ induction in response to o-factor were studied as described below. Transformants were grown to the mid-exponential phase in the medium SC without uracil. 100 μt aliquots of cultures were incubated in 96-well plates in the presence of increasing concentrations of α-factor at 30° C. for 30 minutes prior to assaying β-galactosidase activity. 20 μl of 6X Z-buffer (0.6 M sodium phosphate, pH 7.0, 60 mM KCl, 6 mM MgCl2, 1.6% (v/v) β-mercaptoethanol) containing 10 mM chlorophenolred-β-D-galactoside (CPRG) and 2.5% Triton X-100 was added to each aliquot followed by incubation at room temperature for 30-60 min. The enzymatic reactions were stopped by adding […] of 1 M sodium carbonate and A575 values were determined using a Biomek Plate Reader (Beckman).
The wild type strain and a cav1 mutant strain, transformed with the plasmid Cpl 584 encoding the FUS 1-lacZ reporter gene, were incubated in the presence of α-factor for 30 minutes prior to the β-galactosidase assay. […] Furthermore, the rate of ligand-independent endocytosis of Ste2 receptor, and of Ste3 receptor, respectively, decreased by approximately two-fold in the cav1 mutant. Therefore, an increase in Ste2β mediated signaling may be attributed to the reduced internalization of yeast GPCRs.

T1 sequence (D6VTK4 whole entry): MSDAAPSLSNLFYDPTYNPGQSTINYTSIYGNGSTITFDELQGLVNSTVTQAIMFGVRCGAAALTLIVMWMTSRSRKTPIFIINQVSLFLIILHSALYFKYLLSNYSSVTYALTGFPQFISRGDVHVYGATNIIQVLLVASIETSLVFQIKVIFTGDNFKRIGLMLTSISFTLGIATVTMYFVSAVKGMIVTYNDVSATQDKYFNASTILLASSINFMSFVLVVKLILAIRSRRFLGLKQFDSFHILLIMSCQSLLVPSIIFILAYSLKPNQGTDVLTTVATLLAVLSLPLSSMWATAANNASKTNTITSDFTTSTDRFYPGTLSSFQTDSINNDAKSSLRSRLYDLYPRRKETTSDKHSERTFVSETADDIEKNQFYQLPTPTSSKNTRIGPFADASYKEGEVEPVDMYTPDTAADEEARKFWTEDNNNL

## α-factor
cav1 mutant versus wild type
  higher levels of ligand-induced β-galactosidase activity in mutant strain compared with wild type strain: 50-100%
Wild type strain versus cav1 mutant strain
  estimated EC50 values for α-factor: virtually identical
